Test: in vitro
Details: human, hela cells, % viability

| SMILES | viability at 28.5 h, 10 µM |
| --- | --- |
| O=C(Nc1cccc(N2CCNCC2)c1)c1cnccn1 [CBK029470T] | 90.3% |
| CNCC(=O)N1CCN(C(=O)c2ccc(Cl)cc2Cl)CC1 [CBK029576] | 99.9% |
| O=C(O)c1ccc2[nH]c(=O)[nH]c2c1 [CBK032631] | 81.3% |
| CC(C)COc1ccccc1C(=O)NCCC(=O)O [CBK033507] | 102% |
| Cc1cc(OCCCCNCCO)ccc1Cl [CBK033516] | 111% |
| CS(=O)(=O)N(Cc1ccccc1)c1ccc(C(=O)Nc2ccc3c(c2)OCO3)cc1 [CBK033562] | 85.4% |
| CC1(C)NC(=O)N(CC(O)CN(c2cc(Cl)ccc2Cl)S(=O)(=O)c2ccccc2)C1=O (stereo not drawn) [CBK033672] | 91.4% |
| COc1ccc(C2Nc3ccccc3C(=O)N2Cc2ccccc2)cc1COc1ccc([N+](=O)[O-])cc1 (stereo not drawn) [CBK033690] | 86.9% |
| O=C(c1ccc(C#CC2(O)CCCCC2)cc1)N1CCC(C(O)(c2ccccc2)c2ccccc2)CC1 [CBK033758] | 84.7% |
| Cc1ccc([N+](=O)[O-])cc1NC(=O)C1CCCN1S(=O)(=O)c1ccc(Cl)cc1 (stereo not drawn) [CBK033769] | 95.7% |
| COc1ccc(CN2CCN(Cc3ccc4c(c3)OCO4)CC2)c(OC)c1OC [CBK033874] | 91.4% |
| COc1cc(C(=O)Nc2ccc(-c3nc4ncccc4o3)cc2)ccc1OCc1ccc(Cl)cc1 [CBK033914] | 92.7% |
| CCCC1COC(c2ccc(C#N)cc2)OC1 (stereo not drawn) [CBK033941] | 94.5% |
| CC(C)c1cc2cc3ccc(=O)oc3cc2o1 [CBK033944] | 93.6% |
| Oc1ccc(Oc2ccc(Oc3ccc(O)cc3)cc2)cc1 [CBK033968] | 107% |
| CC(CCc1ccc(O)cc1)NC1CCCC1 (stereo not drawn) [CBK033987] | 102% |
| CCCCN1CCC(CNc2cc(C(F)(F)F)c3scc(C(=O)NC4CCC4)c3n2)CC1 [CBK034026C] | 103% |
| O=S(=O)(c1ccc(N2CCNCC2)cc1)n1ccc2ccc(Br)cc21 [CBK034034C] | 70.6% |
| CCCc1ccc(S(=O)(=O)Nc2ccc(C(=O)O)cc2)cc1 [CBK034044] | 114% |
| O=C(O)c1ccc(NS(=O)(=O)c2cc(F)c(Br)cc2F)cc1 [CBK034045] | 101% |
| O=C(O)c1ccc(NS(=O)(=O)c2cc(Cl)sc2Cl)cc1 [CBK034046] | 99.9% |
| COc1ccc(Br)cc1S(=O)(=O)Nc1ccc(C(=O)O)cc1 [CBK034047] | 106% |
| COc1ccc(S(=O)(=O)Nc2ccc(C(=O)O)cc2)cc1OC [CBK034048] | 96.2% |

| SMILES | viability at 28.5 h, 10 µM |
| --- | --- |
| O=C(O)c1ccc(NS(=O)(=O)c2cc(Br)c(Cl)s2)cc1 [CBK034049] | 95.8% |
| O=C(O)c1ccc(NS(=O)(=O)c2ccc3ccccc3c2)cc1 [CBK034053] | 96.6% |
| Cc1ccc(S(=O)(=O)Nc2ccc(C(=O)O)cc2)cc1[N+](=O)[O-] [CBK034055] | 94.8% |
| O=C(O)c1ccc(NS(=O)(=O)c2ccc(Br)cc2)cc1 [CBK034058] | 97.6% |
| NS(=O)(=O)c1cnc(Cl)c(Br)c1 [CBK034079] | 92.5% |
| NC(=O)CCCCn1c2c(c3cccc(C(=O)O)c31)CCCCC2 [CBK034088] | 104% |
| O=C(Nc1cccnc1N1CCNCC1)c1ccc(-c2cccc(C(F)(F)F)c2)o1 [CBK034119T] | 90.1% |
| COc1ccc(/C=C(\C)C(=O)Nc2cccnc2N2CCNCC2)cc1OC [CBK034124T] | 88.3% |
| O=C(/C=C/c1cccnc1)Nc1ccccc1N1CCNCC1 [CBK034136T] | 102% |
| Cn1cc(C(=O)Nc2ccccc2N2CCNCC2)c2ccccc21 [CBK034141T] | 92.2% |
| COc1ccc([C@@]23CC[C@@H](NC(=O)Nc4ccc5ccccc5c4)C[C@@H]2N(C)CC3)cc1OC [CBK034181T] | 102% |
| CCOCCc1nsc(NS(=O)(=O)c2cccc(Cl)c2C)n1 [CBK034245] | 102% |
| Cc1ccc(S(=O)(=O)N2CCN(C)CC2)cc1NC(=O)c1ccc(Br)o1 [CBK034260C] | 99.3% |
| O=C(NCc1ccncc1)c1csc2c(C(F)(F)F)cc(N3CCN(Cc4ccccc4)CC3)nc12 [CBK034294T] | 98.6% |
| NC(=O)c1ccc(SCC(=O)O)c([N+](=O)[O-])c1 [CBK034310] | 97.7% |
| CC(C)C(=O)NCCN1CCOCC1 [CBK034322] | 115% |
| CCOC(=O)N1CCCN(C(=O)OCC)CC1 [CBK034324] | 101% |
| CCCc1ccc(S(=O)(=O)Nc2cccc(C(=O)OCC)c2)cc1 [CBK034332] | 92.5% |
| CCOC(=O)c1cccc(NS(=O)(=O)c2cc(Br)ccc2OC)c1 [CBK034336] | 63.3% |
| CCOC(=O)c1cccc(NS(=O)(=O)c2ccc(-c3ccccc3)cc2)c1 [CBK034341] | 92.8% |
| CCOC(=O)c1cccc(NS(=O)(=O)c2cccc3cccnc23)c1 [CBK034345] | 57.2% |
| CCOC(=O)c1cccc(NS(=O)(=O)c2ccc(Br)cc2)c1 [CBK034346] | 97.7% |
| CCOC(=O)c1cccc(NS(=O)(=O)c2ccc(NC(C)=O)cc2)c1 [CBK034349] | 78.8% |

| SMILES | viability at 28.5 h, 10 µM |
| --- | --- |
| CC(=O)Nc1cc(S(N)(=O)=O)c(F)cc1C [CBK034356] | 94.1% |
| CCN(CC)C(=O)c1ccc(NS(=O)(=O)c2cccc(Cl)c2C)cc1 [CBK034393] | 108% |
| CCN(CC)C(=O)c1ccc(NS(=O)(=O)c2ccc(-c3ccccc3)cc2)cc1 [CBK034395] | 97.5% |
| CCCc1ccc(S(=O)(=O)Nc2ccc(C(=O)N(CC)CC)cc2)cc1 [CBK034403] | 92.3% |
| Cc1cc(F)c(S(=O)(=O)N2CCN(C)CC2)cc1NC(=O)c1cc2ccccc2o1 [CBK034419C] | 94% |
| CNS(=O)(=O)c1ccc(C)c(NC(C)=O)c1C [CBK034426] | 88.5% |
| CCOC(=O)CNS(=O)(=O)c1cc(Cl)sc1Cl [CBK034431] | 113% |
| CCOC(=O)CNS(=O)(=O)Cc1ccccc1[N+](=O)[O-] [CBK034439] | 95.3% |
| CCOC(=O)CNS(=O)(=O)c1cccc2cccnc12 [CBK034440] | 115% |
| Cc1ccc(S(=O)(=O)NCC(=O)O)cc1[N+](=O)[O-] [CBK034459] | 114% |
| O=C(O)CNS(=O)(=O)c1ccc(F)cc1 [CBK034464] | 122% |
| Cc1noc(C)c1S(=O)(=O)NCC(=O)N1CCOCC1 [CBK034476] | 94.9% |
| CN1CCN(C(=O)CNS(=O)(=O)c2ccc(Br)cc2)CC1 [CBK034478] | 101% |
| CCN(CC)C(=O)CNS(=O)(=O)c1ccc(C)cc1 [CBK034491] | 103% |
| CCN(CC)C(=O)CNS(=O)(=O)c1cc(Br)c(Cl)s1 [CBK034500] | 112% |
| CN1CCN(C(=O)c2ccc(NS(=O)(=O)c3cc(Cl)sc3Cl)cc2)CC1 [CBK034549] | 94% |
| CC(=O)Nc1ccc(S(=O)(=O)Nc2ccc(C(=O)N3CCOCC3)cc2)cc1 [CBK034564] | 94.9% |
| CCn1nnc(C2=CCCN(C)C2)n1 [CBK034628E] | 104% |
| COc1ccccc1CN(CCCN)C(=O)NC(C)c1ccccc1 (stereo not drawn) [CBK034667C] | 87.3% |
| CC(C)(C)c1ccccc1NC(=O)N(CCCN)Cc1cc(F)cc(F)c1 [CBK034697C] | 82.7% |
| Cc1c(F)cccc1CN(CCCN)C(=O)Nc1ccccc1C(C)(C)C [CBK034699C] | 89.3% |
| N#Cc1ccsc1NS(=O)(=O)c1ccc(Cl)c(Cl)c1 [CBK034735] | 95% |
| O=C(NC(=O)C1CCNCC1)Nc1ccc(F)cc1F [CBK034793] | 115% |

| SMILES | viability at 28.5 h, 10 µM |
| --- | --- |
| COc1cccc(NC(=O)NC(=O)C2CCN(C(C)C)CC2)c1 [CBK034798] | 89.6% |
| COc1cc(CNC(=O)NC(=O)C2CCN(C(C)C)CC2)cc(OC)c1OC [CBK034800] | 82.9% |
| CC(C)N1CCC(C(=O)NC(=O)NCCc2ccc3c(c2)OCO3)CC1 [CBK034804] | 96.6% |
| Cc1ccc(OCCNC(=O)NC(=O)C2CCN(C)CC2)c2c1CCC2 [CBK034824] | 115% |
| CN1CCC(C(=O)NC(=O)NC2CCCCC2)CC1 [CBK034825] | 112% |
| CN1CCC(C(=O)NC(=O)Nc2ccccc2F)CC1 [CBK034827] | 93.2% |
| COc1ccccc1NC(=O)NC(=O)C1CCN(C)CC1 [CBK034830] | 96.6% |
| COc1cc(NC(=O)NC(=O)C2CCN(C(C)=O)CC2)cc(OC)c1OC [CBK034831] | 114% |
| CC(=O)N1CCC(C(=O)NC(=O)NCc2ccc3c(c2)CCO3)CC1 [CBK034837] | 93.8% |
| CC(=O)N1CCC(C(=O)NC(=O)NCCOc2ccccc2Cl)CC1 [CBK034842] | 97.9% |
| CC(=O)N1CCC(C(=O)NC(=O)Nc2ccccc2F)CC1 [CBK034848] | 107% |
| CCOc1ccc(NC(=O)NC(=O)C2CCN(C(C)=O)CC2)cc1 [CBK034852] | 119% |
| COc1ccccc1NC(=O)NC(=O)C1CCN(C(C)=O)CC1 [CBK034853] | 119% |
| CC(=O)N1CCC(C(=O)NC(=O)Nc2cccc(C)c2)CC1 [CBK034854] | 94.3% |
| COc1ccc(CCCN2CCC(C(=O)NC(=O)Nc3cc(OC)c(OC)c(OC)c3)CC2)cc1 [CBK034855] | 86.3% |
| COc1cc(CNC(=O)NC(=O)C2CCN(CCc3cccc(O)c3)CC2)cc(OC)c1OC [CBK034857] | 93.2% |
| COc1cc(CNC(=O)NC(=O)C2CCN(CCc3c(-c4ccccc4)[nH]c4ccccc34)CC2)cc(OC)c1OC [CBK034859] | 91.7% |
| COc1ccc(CNC(=O)NC(=O)C2CCN(S(C)(=O)=O)CC2)c(OC)c1 [CBK034861] | 89.4% |
| COc1ccc(CNC(=O)NC(=O)C2CCN(CCc3c[nH]c4ccccc34)CC2)c(OC)c1 [CBK034864] | 90% |
| COc1ccccc1CCCN1CCC(C(=O)NC(=O)Nc2ccccc2)CC1 [CBK034865] | 89.7% |
| Cc1cccc(NC(=O)NC(=O)C2CCN(CCOc3ccccc3)CC2)c1 [CBK034868] | 89.9% |

Source: publication PMC12040169 (PLOS Biology, 2025)
